Results as given in ChEMBL document CHEMBL1201862, “PubChem BioAssay data set” (2004).
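Following 48 hours of exposure in 96-well plates, responses at five concentrations were used to interpolate endpoints linearly. GI50 marks 50% less growth.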 The source made the active and inactive calls. No stated cut-off is given here; in the data, active = GI50 up to about 1.1 µM and inactive = higher.

Key:
Assay in all cases: NCI-60 cell line screen, 48 h
HOP-92 = test system: HOP-92
NCI-H226 = test system: NCI-H226
HL-60 = test system: HL-60
786-0 = test system: 786-0
SN12C = test system: SN12C
NCI-H522 = test system: NCI-H522
SK-MEL-28 = test system: SK-MEL-28
HCT-15 = test system: HCT-15
XF498 = test system: XF498
SK-MEL-2 = test system: SK-MEL-2
DMS-273 = test system: DMS-273
M19-MEL = test system: M19-MEL
RPMI-8226 = test system: RPMI-8226
HCC 2998 = test system: HCC 2998
DMS-114 = test system: DMS-114
RXF 631 = test system: RXF 631
SNB-19 = test system: SNB-19
CCRF-CEM = test system: CCRF-CEM
U-251 = test system: U-251
NCI-H23 = test system: NCI-H23
A498 = test system: A498
OVCAR-8 = test system: OVCAR-8
IGROV-1 = test system: IGROV-1
A549 = test system: A549
HOP-18 = test system: HOP-18
COLO 205 = test system: COLO 205
SK-OV-3 = test system: SK-OV-3
SW-620 = test system: SW-620
SNB-75 = test system: SNB-75
LOX IMVI = test system: LOX IMVI
OVCAR-3 = test system: OVCAR-3
CAKI-1 = test system: CAKI-1
OVCAR-4 = test system: OVCAR-4
SF-295 = test system: SF-295
UACC-62 = test system: UACC-62
HT-29 = test system: HT-29
HCT-116 = test system: HCT-116
KM12 = test system: KM12
OVCAR-5 = test system: OVCAR-5
TK-10 = test system: TK-10
UACC-257 = test system: UACC-257
SF-268 = test system: SF-268
ACHN = test system: ACHN
LXFL 529 = test system: LXFL 529
SNB-78 = test system: SNB-78
EKVX = test system: EKVX
UO-31 = test system: UO-31
SK-MEL-5 = test system: SK-MEL-5
M14 = test system: M14
KM-20L2 = test system: KM-20L2
MOLT-4 = test system: MOLT-4
K562 = test system: K562
RXF 393 = test system: RXF 393
SF-539 = test system: SF-539
NCI-H460 = test system: NCI-H460
HOP-62 = test system: HOP-62
Malme-3M = test system: Malme-3M
SR = test system: SR
DLD-1 = test system: DLD-1

CS(=O)(=O)OCCN1CCN(C(=O)c2cccc3c(Nc4ccc(S(N)(=O)=O)cc4)c4ccccc4nc23)CC1
GI50 (HOP-92): > 100 µM (inactive) | GI50 (NCI-H226): > 100 µM (inactive) | GI50 (HL-60): > 63.1 µM (inactive) | GI50 (786-0): > 100 µM (inactive) | GI50 (SN12C): > 100 µM (inactive) | GI50 (NCI-H522): > 100 µM (inactive) | GI50 (SK-MEL-28): > 100 µM (inactive) | GI50 (HCT-15): > 42.9 µM | GI50 (XF498): > 100 µM (inactive) | GI50 (SK-MEL-2): > 100 µM (inactive) | GI50 (DMS-273): > 100 µM (inactive) | GI50 (M19-MEL): > 81.8 µM (inactive) | GI50 (RPMI-8226): > 46.5 µM (inactive) | GI50 (HCC 2998): > 100 µM (inactive) | GI50 (DMS-114): > 42.2 µM (inactive) | GI50 (RXF 631): > 100 µM (inactive) | GI50 (SNB-19): > 49.8 µM (inactive) | GI50 (CCRF-CEM): > 44.1 µM (inactive) | GI50 (U-251): > 100 µM (inactive) | GI50 (NCI-H23): > 100 µM (inactive) | GI50 (A498): > 100 µM (inactive) | GI50 (OVCAR-8): > 100 µM (inactive) | GI50 (IGROV-1): > 100 µM (inactive) | GI50 (A549): > 100 µM (inactive) | GI50 (HOP-18): > 100 µM (inactive) | GI50 (COLO 205): > 50.8 µM (inactive) | GI50 (SK-OV-3): > 100 µM (inactive) | GI50 (SW-620): > 39.3 µM (inactive) | GI50 (SNB-75): > 100 µM (inactive) | GI50 (LOX IMVI): > 40.6 µM (inactive) | GI50 (OVCAR-3): > 100 µM (inactive) | GI50 (CAKI-1): > 100 µM (inactive) | GI50 (OVCAR-4): > 100 µM (inactive) | GI50 (SF-295): > 100 µM (inactive) | GI50 (UACC-62): > 100 µM (inactive) | GI50 (HT-29): > 100 µM (inactive) | GI50 (HCT-116): > 43.9 µM (inactive) | GI50 (KM12): > 100 µM (inactive) | GI50 (OVCAR-5): > 100 µM (inactive) | GI50 (TK-10): > 100 µM (inactive) | GI50 (UACC-257): > 66.7 µM (inactive) | GI50 (SF-268): > 100 µM (inactive) | GI50 (ACHN): > 100 µM (inactive) | GI50 (LXFL 529): > 100 µM (inactive) | GI50 (SNB-78): > 100 µM (inactive) | GI50 (EKVX): > 100 µM (inactive) | GI50 (UO-31): > 100 µM (inactive) | GI50 (SK-MEL-5): > 100 µM (inactive) | GI50 (M14): > 100 µM (inactive) | GI50 (KM-20L2): > 100 µM (inactive) | GI50 (MOLT-4): > 100 µM (inactive) | GI50 (K562): > 51.5 µM (inactive) | GI50 (RXF 393): > 55.2 µM (inactive) | GI50 (SF-539): > 100 µM (inactive) | GI50 (NCI-H460): > 100 µM (inactive) | GI50 (HOP-62): > 100 µM (inactive) | GI50 (Malme-3M): > 100 µM (inactive) | GI50 (SR): > 100 µM (inactive) | GI50 (DLD-1): > 46.8 µM (inactive)
